For 39 compounds, Relative potency, CF and IC50 results are on record in ChEMBL document CHEMBL1151568, “New TXA2/PGH2 receptor antagonists based on the carbacyclin skeleton” (Bioorg Med Chem Lett, 1993).

For orientation: IC50 means the concentration at which inhibition is half-maximal.

A value given as a limit tells only on which side of the number the result lay.

In assay [1] the target is T1, Thromboxane A2 receptor (Homo sapiens) (UniProt P21731).
T1 sequence (whole entry): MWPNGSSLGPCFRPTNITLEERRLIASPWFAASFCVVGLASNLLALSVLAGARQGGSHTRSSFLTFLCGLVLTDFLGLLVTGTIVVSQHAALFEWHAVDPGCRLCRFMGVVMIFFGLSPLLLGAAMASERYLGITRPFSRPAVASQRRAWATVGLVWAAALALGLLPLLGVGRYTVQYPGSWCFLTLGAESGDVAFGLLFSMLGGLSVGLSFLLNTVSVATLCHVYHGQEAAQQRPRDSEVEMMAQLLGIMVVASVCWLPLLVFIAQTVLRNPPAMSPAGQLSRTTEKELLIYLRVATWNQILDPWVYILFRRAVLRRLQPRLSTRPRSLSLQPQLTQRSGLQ
The experiment in a line: Antiaggregatory potency relative to TP-receptor antagonist SQ 29548. The assay is classed as functional.

In assay [2] the target is T1, Thromboxane A2 receptor (Homo sapiens). The experiment in a line: TP receptor affinity, expressed as competition factor (CF) which is the ratio of IC50 of test to IC50 of standard.
Assay [3] is filed under the species Homo sapiens. The experiment in a line: Compound was tested for its ability to inhibit blood platelet aggregation induced by TP-receptor agonist U 46619. The assay is classed as functional.
Assay [4] addresses T2, Prostacyclin receptor (Homo sapiens, UniProt P43119). Briefly: (§1) Compound was tested for Prostanoid IP receptor affinity and expressed as competition factor (CF) which is the ratio of IC50 of test to IC50 of standard.
The species entered for assay [5] is Homo sapiens. Briefly: Compound was tested for its ability to inhibit blood platelet aggregation induced by ADP. The assay is classed as functional.
Assay [6] has as its target T2, Prostacyclin receptor. Described as §1. The source holds these as a separate data set.

T2 sequence (P43119 whole entry): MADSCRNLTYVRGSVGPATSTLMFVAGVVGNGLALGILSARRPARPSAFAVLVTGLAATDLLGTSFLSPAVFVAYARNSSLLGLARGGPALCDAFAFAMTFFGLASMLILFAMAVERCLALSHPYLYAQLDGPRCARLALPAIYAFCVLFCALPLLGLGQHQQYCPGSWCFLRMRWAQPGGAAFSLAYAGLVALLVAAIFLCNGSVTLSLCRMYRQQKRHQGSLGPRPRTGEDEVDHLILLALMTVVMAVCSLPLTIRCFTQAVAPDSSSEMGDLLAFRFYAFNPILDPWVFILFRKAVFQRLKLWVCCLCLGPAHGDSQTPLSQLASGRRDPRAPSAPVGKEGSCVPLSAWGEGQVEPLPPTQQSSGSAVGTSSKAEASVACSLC

In the case of `O=C(O)CCC/C=C1\C[C@H]2C[C@@H](O)[C@H](/C=N/NC(=O)Nc3ccc([N+](=O)[O-])cc3)[C@H]2C1`, the Relative potency in assay [1] came out at 0.1. Moreover, the CF in assay [2] worked out at 0.7.

For the compound `O=C(O)COC/C=C1/C[C@H]2C[C@@H](O)[C@H](/C=N/NC(=O)Nc3ccc([N+](=O)[O-])cc3)[C@H]2C1`, the Relative potency in assay [1] came to 1. Also, the CF in assay [2] turned out to be 0.9.

The compound `O=C(O)CC/C=C1\C[C@H]2C[C@@H](O)[C@H](/C=N/NC(=O)Nc3cccc(Cl)c3)[C@H]2C1` registered a Relative potency in assay [1] of 0.004. Moreover, the CF in assay [2] was 50.

As to `O=C(O)CC/C=C1/C[C@H]2C[C@@H](O)[C@H](/C=N/NC(=O)Nc3ccc(Cl)c(Cl)c3)[C@H]2C1`, the Relative potency in assay [1] was 0.33. For the same compound, the CF in assay [2] amounted to 0.8.

`O=C(O)CCC/C=C1/C[C@H]2C[C@@H](O)[C@H](/C=N/NC(=O)Nc3cccc(Cl)c3)[C@H]2C1`: in assay [1], the Relative potency is 0.25. For the same compound, in assay [2], the CF amounted to 0.2.

`O=C(O)CCC/C=C1/C[C@H]2C[C@@H](O)[C@H](/C=N\OC(c3ccccc3)c3ccccc3)[C@H]2C1` gave a Relative potency in assay [1] of 0.001. The IC50 was 23000 nM in the assay filed under Homo sapiens [3] and “NC” at Prostacyclin receptor [4]. The CF in assay [2] worked out at 210.

Consider `O=C(O)CCC/C=C1\C[C@H]2C[C@@H](O)[C@H](/C=N/OCc3ccc(F)cc3)[C@H]2C1`, for which the Relative potency in assay [1] came to 0.009. In addition, the IC50 amounted to 1500 nM in the assay listed under Homo sapiens [5] and 1900 nM in the assay listed under Homo sapiens [3]. The values for the CF (in assay [2]; at Prostacyclin receptor [6]) were greater than 1000 and 20, respectively.

In assay [1], `O=C(O)COC/C=C1\C[C@H]2C[C@@H](O)[C@H](/C=N/NC(=O)Nc3ccc([N+](=O)[O-])cc3)[C@H]2C1` displayed a Relative potency of 0.33. Also, in assay [2], the CF was 9.4.

In assay [1], `O=C(O)CCC/C=C1/C[C@H]2CC[C@H](/C=N/NC(=O)Nc3ccc(Cl)c(Cl)c3)[C@H]2C1` yielded a Relative potency of 0.003. Moreover, the CF in assay [2] was 1.6.

Consider `O=C(O)CCC/C=C1/C[C@H]2C[C@@H](O)[C@H](/C=N/NC(=O)Nc3ccc([N+](=O)[O-])cc3)[C@H]2C1`, for which the Relative potency in assay [1] was found to be 0.33. For the same compound, the CF in assay [2] was found to be 0.1.

In turn, `O=C(O)CCC/C=C1/C[C@H]2C[C@@H](O)[C@H](/C=N/OCc3ccccc3)[C@H]2C1` showed a Relative potency in assay [1] of 0.001. For the same compound, the IC50 is greater than 50000 nM in the assay listed under Homo sapiens [5] and 5400 nM in the assay listed under Homo sapiens [3]. For the same compound, the CF in assay [2] amounted to 470; on Prostacyclin receptor [6] it was 100.

As for `O=C(O)CC/C=C1\C[C@H]2C[C@@H](O)[C@H](/C=N/NC(=O)Nc3ccccc3)[C@H]2C1`, in assay [1], the Relative potency came out at 0.0007. In addition, in assay [2], the CF was 454.

Regarding `O=C(O)CC/C=C1\C[C@H]2C[C@@H](O)[C@H](/C=N/NC(=O)Nc3ccc([N+](=O)[O-])cc3)[C@H]2C1`, the Relative potency in assay [1] worked out at 0.027. The CF in assay [2] amounted to 22.

`O=C(O)CCC/C=C1/C[C@H]2CC[C@H](/C=N/NC(=O)Nc3ccc([N+](=O)[O-])cc3)[C@H]2C1`: the Relative potency in assay [1] is 0.01. The CF in assay [2] was found to be 0.7.

In the case of `O=C(O)CC/C=C1/C[C@H]2C[C@@H](O)[C@H](/C=N/NC(=O)Nc3cccc(Cl)c3)[C@H]2C1`, the Relative potency in assay [1] turned out to be 0.11. Also, in assay [2], the CF amounted to 2.4.

`O=C(O)CCC/C=C1\C[C@H]2C[C@@H](O)[C@H](/C=N/NC(=O)Nc3cccc(Cl)c3)[C@H]2C1` came in with a Relative potency in assay [1] of 0.09. In assay [2], the CF was determined as 1.6.

Turning to `O=C(O)CC/C=C1\C[C@H]2C[C@@H](O)[C@H](/C=N/NC(=O)Nc3ccc(Cl)c(Cl)c3)[C@H]2C1`, the Relative potency in assay [1] came out at 0.008. In assay [2], the CF amounted to 16.

In turn, `O=C(O)CCC/C=C1/C[C@H]2CC[C@H](/C=N/NC(=O)Nc3ccccc3)[C@H]2C1` gave a Relative potency in assay [1] of 0.002. Besides, the CF in assay [2] stood at 3.

In assay [1], `O=C(O)COC/C=C1\C[C@H]2C[C@@H](O)[C@H](/C=N/NC(=O)Nc3cccc(Cl)c3)[C@H]2C1` came in with a Relative potency of 0.03. Also, the CF in assay [2] stood at 18.

As to `O=C(O)CCC/C=C1/C[C@H]2C[C@@H](O)[C@H](/C=N/OCc3ccc4ccccc4c3)[C@H]2C1`, the Relative potency in assay [1] turned out to be 0.002. In addition, the IC50 in the assay listed under Homo sapiens [3] came to 2200 nM. The CF in assay [2] was found to be 90; at Prostacyclin receptor [6] it was 76.

In the case of `O=C(O)CCC/C=C1\C[C@H]2C[C@@H](O)[C@H](/C=N/NC(=O)Nc3ccccc3)[C@H]2C1`, the Relative potency in assay [1] is 0.005. For the same compound, in assay [2], the CF turned out to be 20.

The compound `O=C(O)CCC/C=C1\C[C@H]2C[C@@H](O)[C@H](/C=N/OCc3ccccc3)[C@H]2C1` gave a Relative potency in assay [1] of 0.009. Further, the IC50 in the assay listed under Homo sapiens [5] turned out to be 2000 nM; in the assay listed under Homo sapiens [3], 1900 nM. In addition, the figures for the CF (in assay [2]; on Prostacyclin receptor [6]) were greater than 1000 and 7, respectively.

In assay [1], `O=C(O)CCC/C=C1/C[C@H]2C[C@@H](O)[C@H](/C=N/NC(=O)Nc3ccc(Cl)c(Cl)c3)[C@H]2C1` displayed a Relative potency of 1. Moreover, in assay [2], the CF was 0.1.

As to `O=C(O)CCC/C=C1\C[C@H]2CC[C@H](/C=N/NC(=O)Nc3cccc(Cl)c3)[C@H]2C1`, the Relative potency in assay [1] stood at 0.0007. Also, the CF in assay [2] worked out at 16.

For the compound `O=C(O)COC/C=C1/C[C@H]2C[C@@H](O)[C@H](/C=N/NC(=O)Nc3ccccc3)[C@H]2C1`, the Relative potency in assay [1] is 0.014. Moreover, the CF in assay [2] was determined as 16.

In assay [1], `O=C(O)CC/C=C1/C[C@H]2C[C@@H](O)[C@H](/C=N/NC(=O)Nc3ccc([N+](=O)[O-])cc3)[C@H]2C1` came in with a Relative potency of 8.3. Moreover, the CF in assay [2] is 0.5.

For the compound `O=C(O)COC/C=C1/C[C@H]2C[C@@H](O)[C@H](/C=N/NC(=O)Nc3cccc(Cl)c3)[C@H]2C1`, the Relative potency in assay [1] was 0.11. The CF in assay [2] came out at 4.

In assay [1], `O=C(O)CCC/C=C1/C[C@H]2C[C@@H](O)[C@H](/C=N/OCc3ccc(F)cc3)[C@H]2C1` registered a Relative potency of 0.001. The compound also came in with an IC50 in the assay listed under Homo sapiens [3] of 14000 nM. Further, the CF in assay [2] turned out to be 500; at Prostacyclin receptor [6] it was 250.

In the case of `O=C(O)COC/C=C1\C[C@H]2C[C@@H](O)[C@H](/C=N/NC(=O)Nc3ccccc3)[C@H]2C1`, in assay [1], the Relative potency came out at 0.008. Moreover, the CF in assay [2] amounted to 138.

Compound `O=C(O)CCC/C=C1\C[C@H]2CC[C@H](/C=N/NC(=O)Nc3ccc([N+](=O)[O-])cc3)[C@H]2C1` gave a Relative potency in assay [1] of 0.01. Further, in assay [2], the CF was determined as 2.2.

In assay [1], `O=C(O)CCC/C=C1\C[C@H]2C[C@@H](O)[C@H](/C=N/NC(=O)Nc3ccc(Cl)c(Cl)c3)[C@H]2C1` registered a Relative potency of 0.038. In addition, the CF in assay [2] came out at 0.8.

Compound `O=C(O)CCC/C=C1/C[C@H]2C[C@@H](O)[C@H](/C=N/NC(=O)Nc3ccccc3)[C@H]2C1` yielded a Relative potency in assay [1] of 0.17. Further, the CF in assay [2] stood at 1.5.

Turning to `O=C(O)CCC/C=C1\C[C@H]2C[C@@H](O)[C@H](/C=N\OC(c3ccccc3)c3ccccc3)[C@H]2C1`, the Relative potency in assay [1] stood at 0.03. For the same compound, the IC50 came to 1000 nM in the assay listed under Homo sapiens [5] and 1600 nM in the assay listed under Homo sapiens [3]. Besides, the CF stood at 95 in assay [2] and 160 at Prostacyclin receptor [6].

Consider `O=C(O)CC/C=C1/C[C@H]2C[C@@H](O)[C@H](/C=N/NC(=O)Nc3ccccc3)[C@H]2C1`, for which, in assay [1], the Relative potency was 0.059. Also, the CF in assay [2] came out at 10.

For the compound `O=C(O)CCC/C=C1\C[C@H]2C[C@@H](O)[C@H](/C=N/OCc3ccc4ccccc4c3)[C@H]2C1`, the Relative potency in assay [1] was 0.03. In addition, the IC50 in the assay filed under Homo sapiens [5] is 1100 nM; in the assay listed under Homo sapiens [3], 1600 nM. Besides, the results for the CF (in assay [2]; on Prostacyclin receptor [6]) were 280 and 31, respectively.

Compound `O=C(O)COC/C=C1/C[C@H]2C[C@@H](O)[C@H](/C=N/NC(=O)Nc3ccc(Cl)c(Cl)c3)[C@H]2C1` returned a Relative potency in assay [1] of 0.33. Also, in assay [2], the CF turned out to be 0.7.

With `O=C(O)CCC/C=C1\C[C@H]2CC[C@H](/C=N/NC(=O)Nc3ccccc3)[C@H]2C1`, in assay [1], the Relative potency came out at 0.0004. The CF in assay [2] is 40.

`O=C(O)COC/C=C1\C[C@H]2C[C@@H](O)[C@H](/C=N/NC(=O)Nc3ccc(Cl)c(Cl)c3)[C@H]2C1`: in assay [1], the Relative potency was 0.11. In addition, the CF in assay [2] is 2.9.

In assay [1], `O=C(O)CCC/C=C1\C[C@H]2CC[C@H](/C=N/NC(=O)Nc3ccc(Cl)c(Cl)c3)[C@H]2C1` displayed a Relative potency of 0.002. In addition, in assay [2], the CF amounted to 4.3.
